# The METLIN SMRT retention time set (Domingo-Almenara et al. 2019)
# Assay: gradient 5% acetonitrile 3 min, to 50% in 2 min, to 85% in 15 min, held 3 min, 100 µL/min
# Settings: column: Zorbax Extend-C18 2.1 x 50 mm; eluents: water / acetonitrile, 0.1% formic acid
# Procedure, shortened: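 Pure standards were analyzed in mixtures of ~100 molecules using HPLC coupled to a quadrupole time-of-flight mass spectrometer, in both positive and negative ionization mode. Separation used a Zorbax Extend-C18 column (2.1 × 50 mm, 1.8 μm) at 100 μL/min, with water and acetonitrile each containing 0.1% formic acid. Dead and dwell volumes were 40 μL and 900 μL, and data were collected over 3 months. Retention time was read from computationally picked adduct peaks, each inspected manually.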
row,SMILES,RP-LC retention time [s]
1,Cc1cccc(CNc2cc(-n3ccnc3)ncn2)c1,656
2,CCC(=O)n1nc(-c2cccc(C)c2)nc1N,890
3,CNC(=O)C1CCN(c2nc3ncn(CC(=O)NC(C)C)c(=O)c3s2)CC1,570
4,Cc1ccc(N2C(=O)CN(S(C)(=O)=O)CC2(C)C(=O)NC2CCCCCC2)cc1F (centres undefined),905
5,Cc1cccc(C)c1OCC(O)Cn1c(C2CC2)nc2ccccc21 (centres undefined),710
6,CN1C(=O)CCc2cc(NS(=O)(=O)c3cccc4nsnc34)ccc21,716
7,O=C(CCC1NC(=O)c2ccccc2NC1=O)Nc1ncn[nH]1 (centres undefined),521
8,NS(=O)(=O)c1ccc(CCNC(=O)c2ccc(-n3cnnn3)cc2)cc1,622
9,CCC(=O)NCc1nc2c(n1CC)CN(C(=O)c1cccc(Br)c1)CC2,596
10,COc1ccc(S(=O)(=O)N2CCCC2)cc1C(=O)NC1CCS(=O)(=O)C1 (centres undefined),629
11,CCCN(CCC)C(=O)C1CCCN(c2ncnc3c2nc2n3CCCCC2)C1 (centres undefined),836
12,CCOC(=O)C(=O)Nc1cccc(F)c1,723
13,O=C(Nc1ccc(C(F)(F)F)cn1)c1cccc2cccnc12,1090
14,N#Cc1ccc(-c2cnc3[nH]cc(NC(=O)c4cccnc4)c3c2)cc1,738
15,Cc1ccc(-c2nocc2CCC(=O)NC(C)c2ccc(F)cc2)cc1 (centres undefined),953
16,Cc1cc(C)n2nc(SCC(=O)Nc3ccc(F)cc3)nc2n1,724
17,Cc1cc(C)c2c(N3CCCC3)nc(C(=O)NCc3ccc(C)o3)nc2n1,577
18,Cc1nc(SCC(=O)O)n[nH]1,765
19,c1ccc(-c2nc(-c3cnccn3)no2)c(OC2CCN(C3CCSCC3)C2)c1 (centres undefined),653
20,CC(C)Cn1cc(CCNC(=O)c2cncc(Br)c2)c2cccnc21,796
21,COc1ccc(S(=O)(=O)N2CCCC(C(=O)NCCC3=CCCCC3)C2)cc1Cl (centres undefined),1070
22,CCCn1cc(-c2ccncc2)cc1C(=O)Nc1ccc2c(c1)OCCO2,679
23,Cc1ccc(NC(=O)N2CCC(OC3CCN(S(C)(=O)=O)CC3)CC2)c(C)c1,743
24,COc1ccc(NC(=O)N2[C@H]3CC[C@@H]2c2cncnc2C3)cc1OC,839
25,CN(CC1CCOC1)C(=O)Nc1ccc(F)c(Cl)c1 (centres undefined),709
26,O=c1n(CC2CC2)nc2n1CCC(NS(=O)(=O)c1cccnc1)CC2 (centres undefined),621
27,CCCN1C(=O)COc2ccc(-c3csc(NC(=O)C4CC4)n3)cc21,879

row,SMILES,RP-LC retention time [s]
1,COCCn1c(SCc2ccccc2Cl)nc2cc(C(=O)NC(C)C)ccc2c1=O,1010
2,O=C(NCCCN1CCCC1=O)c1ccc(CN2CC(=O)N3CCCC3C2=O)cc1 (centres undefined),583
3,C=CCn1c(=O)c2ccccc2n(Cc2nc(-c3ccccc3OCC)no2)c1=O,1000
4,Cc1ccccc1-c1noc(Cn2ccn(-c3c(C)cccc3C)c(=O)c2=O)n1,923
5,CC(C)(C)C(O)CCNC(=O)C(=O)NCc1ccccc1 (centres undefined),740
6,CCOc1cccc(CNc2nc3ccncc3n(C(C)C)c2=O)c1,687
7,O=C(Cn1cccc1-c1nnc(C2CC2)o1)NCc1cccc(Br)c1,869
8,CSc1ccc(CNC(=O)C2CCCN(C(=O)c3cc(C)cc(C)c3)C2)cc1 (centres undefined),921
9,COc1ccccc1CNC(=O)C1CCN(S(C)(=O)=O)c2ccccc2O1 (centres undefined),807
10,Cc1ccc(C(C)NC(=O)C2CCCN(c3cnc4nccnc4c3)C2)c(C)c1 (centres undefined),809
11,COc1ccc(OC)c(Nc2c(-c3ccc(N(C)C)cc3)nc3cnccn23)c1,796
12,CCSc1nnc(NC(=O)Cn2nc(-c3ccncc3)ccc2=O)s1,561
13,Cc1nc(N2CCCC2)c2c(C(=O)Nc3cccc(C)c3C)c(C)oc2n1,756
14,CCn1nc2ccc(S(=O)(=O)N3CCCCC3)cn2c1=O,744
15,CCCCOc1ccc(NC(=O)c2cc(=O)c3cc(CC)ccc3o2)c2cccnc12,786
16,CCOC(=O)C(C#N)C(=N)C1C(=O)OC2CCCCC21 (centres undefined),839
17,COc1cc(OC)cc(-c2nnc(Cc3nc(-c4ccc(C)cc4)no3)o2)c1,1080
18,O=S(=O)(c1ccccc1)N1CC(c2nc(-c3ccncc3)no2)C1,688
19,Cc1ccc(C)c(NC(=O)C2CCCN(c3nnc(C)c4c(C)n(-c5ccccc5)nc34)C2)c1 (centres undefined),776
20,Cc1ccc(-c2nc(Nc3ccccc3Cl)sc2CC(=O)O)cc1,1040
21,CCC(C)(C)C(=O)O[C@H]1C[C@@H](C)C=C2C=C[C@H](C)[C@H](CC[C@@H](O)C[C@@H](O)CC(=O)O)[C@H]21,1020
22,O=C(O)c1cc2nc(-c3ccc(F)cc3)cc(C(F)(F)F)n2n1,880
23,Cc1noc(-c2ccc(OC3CN(C(=O)NC(C)C)C3)cc2)n1,730
24,CCC(Sc1nnc2c3ccccc3n(C(C)C)c2n1)C(=O)Nc1nc(-c2ccccc2)cs1 (centres undefined),1310
25,COCCCNC(=O)C1CCCN(c2cnc3nccnc3c2)C1 (centres undefined),602
26,c1cc(Cc2nc(-c3ccc4c(c3)ncn4CCN3CCCCC3)no2)cs1,632

# More lines, now with the values ahead:
row,RP-LC retention time [s],SMILES
1,728,CCNC(=O)c1n[nH]c2c1CN(C(=O)c1ccc(OC(F)(F)F)cc1)CC2
2,912,O=C(Oc1ccccc1)N1CCC(CNS(=O)(=O)/C=C/c2ccccc2)CC1
3,629,CCN(CC)C(=O)c1cc2c(s1)CCC(C(=O)N1CCN(c3ccccn3)CC1)C2 (centres undefined)
4,1360,Cc1ccc(C)c(N2CCN(c3ccc4cc(S(=O)(=O)N5CCCCC5)ccc4n3)CC2)c1
5,934,O=C(CCCn1c(=O)c2cccn2c2ccc(F)cc21)N1CCCCCC1
6,907,COc1ccc(-c2noc(C3CCCN3C(=O)c3cccnc3SC)n2)cc1 (centres undefined)
7,894,CN1C(=O)C(C)(C(=O)Nc2ccc(Cl)cc2F)Oc2cccnc21 (centres undefined)
8,864,O=C(COc1ccc(Cl)cc1)N1CCN(c2cc(-c3cccs3)[nH]n2)CC1
9,611,CCc1nnc2nc(N3CCN(C(=O)c4ccc5c(c4)OCO5)CC3)cc(C)n12
10,830,CCn1c(C(=O)N2CCN(c3ncccn3)CC2)cc2cc(S(=O)(=O)N(C)C)ccc21
11,760,COc1ccc(NC(=O)C2CCN(C(=O)c3ncn4c3COC(c3ccc(OC)cc3)C4)CC2)cc1 (centres undefined)
12,783,CC1CCN(C(=O)c2ccc(CN3CCN(Cc4ccc(F)cc4)C(=O)C3=O)cc2)CC1
13,857,O=C(NCCc1ccco1)c1cc2n(n1)CCCN(Cc1ccc(Cl)cc1)C2=O
14,805,O=C(C1CC1)N1CCc2sc(S(=O)(=O)NCc3ccc(F)cc3)cc2C1
15,897,COC(=O)c1c(-c2cccc(Cl)c2)noc1NCc1ccccn1
16,678,Cc1cccc(N(C)C(=O)Cn2nc3nc(N4CCCC4)ccn3c2=O)c1
17,838,Cc1cc(C)cc(Oc2nccn3c(=O)n(CC(=O)Nc4ccccc4C)nc23)c1
18,603,COc1ccc(NC(=O)Cn2c(N3CCCC3)nc(C)cc2=O)cc1

row,RP-LC retention time [s],SMILES
1,664,CN1CCN(c2ccc(-c3nc(-c4ccccc4)no3)cn2)CC1
2,632,Cc1cc(=O)c(OCc2ccccc2F)cn1CC(=O)NCc1ccccc1Cl
3,791,Cc1ccc(N2CCN(Cc3nc(-c4ccc(N5CCOCC5)nc4)no3)CC2)cc1
4,1150,O=C(c1cc(Cl)ccc1F)N1CCc2nc(-c3ccc(Cl)cc3)ncc2C1
5,976,CCc1ccc(NC(=O)N2CCCC2c2nc(-c3ccccc3OC)no2)cc1 (centres undefined)
6,662,CC(=O)N1CCc2cc(-c3ccc(C(=O)N4CCN(C(=O)c5ccco5)CC4)cc3)ccc21
7,1210,Cc1ccc(Sc2nccnc2N2CCCC(C(=O)NCCCc3ccccc3)C2)cc1 (centres undefined)
8,802,O=C(CCCSc1ccc(NC(=O)c2ccc(F)cc2)nn1)NCc1cccs1
9,859,Cc1ccc(-c2cc3n(n2)CCCN(C(=O)CCCC(=O)n2nc(C)c4ccccc42)C3)o1
10,787,Cc1ccc2c(c1)C(=O)NC1(CCN(C(=O)Cc3cccc(F)c3)CC1)N2C
11,660,O=C(NCc1nc2ccccc2n1CCCCOc1ccccc1Cl)c1ccco1
12,985,Cc1cccc(CNC(=O)C2CCN(S(=O)(=O)c3ccc4c(c3)sc(=O)n4C(C)C)CC2)c1
13,835,COc1ccccc1C(=O)N1CCC2(CC1)OCCN2S(=O)(=O)c1ccc(F)c(C)c1
14,935,CC(=O)N1CCc2cc(S(=O)(=O)C(C)CC(=O)N3CCN(c4cccc(C)c4C)CC3)ccc21 (centres undefined)
15,635,O=C(Nc1ccc(N2CCN(C3CCCC3)C2=O)nc1)c1ccncc1
16,775,Clc1cccc(CN2CCc3nc(N4CCN(c5ccccc5)CC4)ncc3C2)c1
17,870,Cc1ccc(NC(=O)C2CCCN(c3ccc4cc(S(=O)(=O)N5CCCC5)ccc4n3)C2)cc1C (centres undefined)
18,599,COc1cc(C(=O)N2CCN(c3cc(N(C)C)nc(C)n3)CC2)cc(OC)c1OC
